Laboratory results taken from patent US20170000133A1, “BENZOXABOROLE FUNGICIDES” (SYNGENTA PARTICIPATIONS AG, priority 2013, published 2017).

Experiments:
[1] = system: Magnaporthe grisea (Pyricularia oryzae); format: in vivo; settings: 200 ppm; rice leaf segments cv. Ballila, inoculated 2 days after application, assessed 5-7 days after application
[2] = system: Phytophthora infestans; experiment: whole plant or invertebrate; format: in vivo; settings: in Solanum lycopersicum, foliar, read-out: disease control
[3] = system: Plasmopara viticola; experiment: whole plant or invertebrate; format: in vivo; settings: foliar, read-out: disease control
[4] = system: Phaeosphaeria nodorum (Septoria nodorum); experiment: Phaeosphaeria nodorum (Septoria nodorum) / wheat / leaf disc preventative (glume blotch); format: in vivo; settings: Parastagonospora nodorum, foliar, wheat leaf segments cv Kanzler, inoculated 2 days after application, assessed 5-7 days after application, read-out: disease control
Method: 5. Phaeosphaeria nodorum (Septoria nodorum)/Wheat/Leaf Disc Preventative (Glume Blotch): Wheat leaf segments (cv) Kanzler were placed on agar in a 24-well plate and sprayed with formulated test compound diluted in water at an application rate of 200 ppm. The leaf disks were inoculated with a spore suspension of the fungus 2 days after application. The inoculated test leaf disks were incubated at 20° C. and 75% relative humidity under a light regime of 12/12 h (light/dark) in a climate cabinet and the activity of a compound was assessed as percent disease control compared to untreated when an appropriate level of disease damage appears in untreated check leaf disks (5-7 days after application).

[5] = system: Pythium ultimum; experiment: Pythium ultimum / liquid culture (seedling damping off); format: cell-based; settings: Globisporangium ultimum; 200 ppm; potato dextrose broth, 24° C., 2-3 days after application; read-out: disease control (inhibition of growth determined photometrically)
[6] = system: Glomerella lagenarium (Colletotrichum lagenarium); experiment: Glomerella lagenarium (Colletotrichum lagenarium) / liquid culture (anthracnose); format: cell-based; settings: Colletotrichum orbiculare, PDB potato dextrose broth, 24° C., 3-4 days after application, read-out: disease control (inhibition of growth measured photometrically)
Method in brief: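 Compound was applied at 200 ppm from DMSO solution, then potato dextrose broth carrying cryostored fungal spores was added. Growth inhibition was measured by photometry after 3-4 days of incubation at 24° C.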

[7] = system: Mycosphaerella graminicola (Septoria tritici); experiment: Mycosphaerella graminicola (Septoria tritici) / liquid culture (Septoria blotch); format: cell-based; settings: Zymoseptoria tritici, PDB potato dextrose broth, 24° C., 4-5 days after application, read-out: disease control (inhibition of growth determined photometrically)
Method in brief: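 Growth inhibition was read photometrically 4-5 days after application, following incubation at 24° C of fungal conidia in potato dextrose broth over test compound (200 ppm, from DMSO solution) in microtiter plates.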

[8] = system: Gaeumannomyces graminis; experiment: Gaeumannomyces graminis / liquid culture (take-all of cereals); format: cell-based; settings: PDB potato dextrose broth, 24° C., 4-5 days after application, read-out: disease control (inhibition of growth determined photometrically)
Method in brief: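 Growth inhibition measured photometrically 4–5 days post-application, following incubation at 24 °C. Test compound, applied from DMSO at 200 ppm, mixed with fungal mycelial fragments in potato dextrose broth.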

[9] = system: Monographella nivalis (Microdochium nivale); experiment: Monographella nivalis (Microdochium nivale) / liquid culture (foot rot cereals); format: cell-based; settings: PDB potato dextrose broth, 24° C., 4-5 days after application, read-out: disease control (inhibition of growth determined photometrically)
[10] = system: Mycosphaerella arachidis (Cercospora arachidicola); experiment: Mycosphaerella arachidis (Cercospora arachidicola) / liquid culture (early leaf spot); format: cell-based; settings: PDB potato dextrose broth, 24° C., 4-5 days after application, read-out: disease control (inhibition of growth determined photometrically)
Method in brief: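 Test compound, applied at 200 ppm from DMSO solution, was combined with spore-containing potato dextrose broth. Photometric growth inhibition was scored after 4-5 days at 24° C.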

[11] = system: Fusarium culmorum; experiment: microbe, parasite or virus in culture; format: cell-based; settings: read-out: disease control (inhibition of growth determined visually)
[12] = system: Thanatephorus cucumeris (Rhizoctonia solani); experiment: Thanatephorus cucumeris (Rhizoctonia solani) / liquid culture (foot rot, damping-off); format: cell-based; settings: PDB potato dextrose broth, 24° C., 3-4 days after application, read-out: disease control (inhibition of growth determined photometrically)
Method in brief: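 Photometric growth-inhibition readout taken 3-4 days after application, with cultures incubated at 24 °C. Test compound was applied at 200 ppm from DMSO solution to R. solani mycelial fragments in PDB.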

[13] = system: Sclerotinia sclerotiorum; experiment: Sclerotinia sclerotiorum / liquid culture (cottony rot); format: cell-based; settings: PDB potato dextrose broth, 24° C., 3-4 days after application, read-out: disease control (inhibition of growth determined visually)
Method: 18. Sclerotinia sclerotiorum/Liquid Culture (Cottony Rot): Mycelia fragments of a newly grown liquid culture of the fungus were directly mixed into nutrient broth (PDB potato dextrose broth). After placing a (DMSO) solution of the test compounds into a microtiter plate (96-well format) the nutrient broth containing the fungal material was added. The test plates were incubated at 24° C. and the inhibition of growth was determined visually 3-4 days after application.

[14] = system: Botryotinia fuckeliana (Botrytis cinerea); experiment: Botryotinia fuckeliana (Botrytis cinerea) / liquid culture (gray mould); format: cell-based; settings: Vogels broth, 24° C., 3-4 days after application, read-out: disease control (inhibition of growth determined photometrically)
Method: 10. Botryotinia fuckeliana (Botrytis cinerea)/Liquid Culture (Gray Mould): Conidia of the fungus from cryogenic storage were directly mixed into nutrient broth (Vogels broth). After placing a DMSO solution of test compound into a 96-well microtiter plate at an application rate of 200 ppm, the nutrient broth containing the fungal spores was added. The test plates were incubated at 24° C. and the inhibition of growth was determined photometrically 3-4 days after application.

[15] = system: Puccinia recondita f. sp. tritici; experiment: Puccinia recondita f. sp. tritici / wheat / leaf disc preventative (brown rust); format: in vivo; settings: foliar, wheat leaf segments cv Kanzler, inoculated 1 day after application, assessed 7-9 days after application, read-out: disease control
From the text: 3. Puccinia recondita f. sp. tritici/Wheat/Leaf Disc Preventative (Brown Rust): Wheat leaf segments cultivated variety (cv) Kanzler were placed on agar in 24-well plates and sprayed with formulated test compound diluted in water at an application rate of 200 ppm. The leaf disks were inoculated with a spore suspension of the fungus 1 day after application.

[16] = system: Puccinia recondita f. sp. tritici; experiment: Puccinia recondita f. sp. tritici / wheat / leaf disc curative (brown rust); format: in vivo; settings: foliar, 192 h, wheat leaf segments, applied one day after inoculation, assessed 8 dpi, read-out: disease control
Method: 4. Puccinia recondita f. sp. tritici/Wheat/Leaf Disc Curative (Brown Rust) Wheat leaf segments are placed on agar in multiwell plates (24-well format). The leaf disks are then inoculated with a spore suspension of the fungus. One day after inoculation the test solution is applied. After appropriate incubation the activity of a compound is assessed 8 dpi (days after inoculation) as curative fungicidal activity. Dose range: 200-22 ppm.

## COC(=O)c1cc2c(cc1Cl)COB2O [Compound 21]
[1]
  disease control: at least 80%

## C#CCCCOC(=O)c1cc2c(cc1Cl)COB2O [Compound 208]
[2]
  pest or weed control at 200 ppm: ≥ 80%
[3]
  pest or weed control at 200 ppm: ≥ 80%
[4]
  pest or weed control at 200 ppm: ≥ 80%
[5]
  inhibition at 200 ppm: ≥ 80%
[6]
  inhibition at 200 ppm: ≥ 80%
[7]
  inhibition at 200 ppm: ≥ 80%
[8]
  inhibition at 200 ppm: ≥ 80%
[9]
  inhibition at 200 ppm: ≥ 80%

## COC(=O)c1cc2c(cc1C)COB2O [Compound 446]
[4]
  pest or weed control at 200 ppm: ≥ 80%
[5]
  inhibition at 200 ppm: ≥ 80%
[6]
  inhibition at 200 ppm: ≥ 80%
[10]
  inhibition at 200 ppm: ≥ 80%
[7]
  inhibition at 200 ppm: ≥ 80%
[8]
  inhibition at 200 ppm: ≥ 80%
[9]
  inhibition at 200 ppm: ≥ 80%
[11]
  inhibition at 200 ppm: ≥ 80%
[12]
  inhibition at 200 ppm: ≥ 80%
[13]
  inhibition at 200 ppm: ≥ 80%
other
  melting point: 136 to 138 °C

## CCC#CCOC(=O)c1ccc2c(c1)B(O)OC2 [Compound 318]
[3]
  pest or weed control at 200 ppm: ≥ 80%
[4]
  pest or weed control at 200 ppm: ≥ 80%
[5]
  inhibition at 200 ppm: ≥ 80%
[14]
  inhibition at 200 ppm: ≥ 80%
[10]
  inhibition at 200 ppm: ≥ 80%
[7]
  inhibition at 200 ppm: ≥ 80%
[8]
  inhibition at 200 ppm: ≥ 80%
[9]
  inhibition at 200 ppm: ≥ 80%
[11]
  inhibition at 200 ppm: ≥ 80%
[12]
  inhibition at 200 ppm: ≥ 80%

## COC(=O)COC(=O)c1cc2c(cc1F)COB2O [Compound 419]
[3]
  pest or weed control at 200 ppm: ≥ 80%
[15]
  pest or weed control at 200 ppm: ≥ 80%
[16]
  pest or weed control at 200 ppm: ≥ 80%
[5]
  inhibition at 200 ppm: ≥ 80%
[14]
  inhibition at 200 ppm: ≥ 80%
[6]
  inhibition at 200 ppm: ≥ 80%
[10]
  inhibition at 200 ppm: ≥ 80%
[7]
  inhibition at 200 ppm: ≥ 80%
[8]
  inhibition at 200 ppm: ≥ 80%
[9]
  inhibition at 200 ppm: ≥ 80%
[11]
  inhibition at 200 ppm: ≥ 80%
[12]
  inhibition at 200 ppm: ≥ 80%
[13]
  inhibition at 200 ppm: ≥ 80%
other
  melting point: 112 to 114 °C

## C#CCCOC(=O)c1cc2c(cc1F)COB2O [Compound 418]
[3]
  pest or weed control at 200 ppm: ≥ 80%
[16]
  pest or weed control at 200 ppm: ≥ 80%
[5]
  inhibition at 200 ppm: ≥ 80%
[10]
  inhibition at 200 ppm: ≥ 80%
[7]
  inhibition at 200 ppm: ≥ 80%
[8]
  inhibition at 200 ppm: ≥ 80%
[9]
  inhibition at 200 ppm: ≥ 80%
[12]
  inhibition at 200 ppm: ≥ 80%
[13]
  inhibition at 200 ppm: ≥ 80%

## COC(=O)COC(=O)c1cc2c(cc1Cl)COB2O [Compound 230]
[3]
  pest or weed control at 200 ppm: ≥ 80%
[16]
  pest or weed control at 200 ppm: ≥ 80%
[5]
  inhibition at 200 ppm: ≥ 80%
[6]
  inhibition at 200 ppm: ≥ 80%
[10]
  inhibition at 200 ppm: ≥ 80%
[7]
  inhibition at 200 ppm: ≥ 80%
[8]
  inhibition at 200 ppm: ≥ 80%
[9]
  inhibition at 200 ppm: ≥ 80%
[11]
  inhibition at 200 ppm: ≥ 80%
[12]
  inhibition at 200 ppm: ≥ 80%
[13]
  inhibition at 200 ppm: ≥ 80%

## O=C(OCCF)c1cc2c(cc1Cl)COB2O [Compound 233]
[16]
  pest or weed control at 200 ppm: ≥ 80%
[4]
  pest or weed control at 200 ppm: ≥ 80%
[5]
  inhibition at 200 ppm: ≥ 80%
[6]
  inhibition at 200 ppm: ≥ 80%
[10]
  inhibition at 200 ppm: ≥ 80%
[7]
  inhibition at 200 ppm: ≥ 80%
[8]
  inhibition at 200 ppm: ≥ 80%
[9]
  inhibition at 200 ppm: ≥ 80%
[11]
  inhibition at 200 ppm: ≥ 80%

## CC(C)c1ccc(NC(=O)c2cc3c(cc2Cl)COB3O)cc1 [Compound 110]
[4]
  pest or weed control at 200 ppm: ≥ 80%
[7]
  inhibition at 200 ppm: ≥ 80%
[9]
  inhibition at 200 ppm: ≥ 80%

## O=C(OCC1CCC1)c1ccc2c(c1)B(O)OC2 [Compound 351]
[3]
  pest or weed control at 200 ppm: ≥ 80%
[16]
  pest or weed control at 200 ppm: ≥ 80%
[4]
  pest or weed control at 200 ppm: ≥ 80%
[5]
  inhibition at 200 ppm: ≥ 80%
[6]
  inhibition at 200 ppm: ≥ 80%
[10]
  inhibition at 200 ppm: ≥ 80%
[7]
  inhibition at 200 ppm: ≥ 80%
[8]
  inhibition at 200 ppm: ≥ 80%
[9]
  inhibition at 200 ppm: ≥ 80%
[11]
  inhibition at 200 ppm: ≥ 80%
[12]
  inhibition at 200 ppm: ≥ 80%

## O=C(OCC1CC1)c1cc2c(cc1Cl)COB2O [Compound 202]
[2]
  pest or weed control at 200 ppm: ≥ 80%
[4]
  pest or weed control at 200 ppm: ≥ 80%
[5]
  inhibition at 200 ppm: ≥ 80%
[14]
  inhibition at 200 ppm: ≥ 80%
[6]
  inhibition at 200 ppm: ≥ 80%
[10]
  inhibition at 200 ppm: ≥ 80%
[7]
  inhibition at 200 ppm: ≥ 80%
[8]
  inhibition at 200 ppm: ≥ 80%
[9]
  inhibition at 200 ppm: ≥ 80%
[11]
  inhibition at 200 ppm: ≥ 80%
[12]
  inhibition at 200 ppm: ≥ 80%
[13]
  inhibition at 200 ppm: ≥ 80%

## O=C(Nc1ccccc1C(=O)c1ccccc1)c1cc2c(cc1F)COB2O [Compound 161]
[3]
  pest or weed control at 200 ppm: ≥ 80%
[15]
  pest or weed control at 200 ppm: ≥ 80%
[4]
  pest or weed control at 200 ppm: ≥ 80%
[5]
  inhibition at 200 ppm: ≥ 80%
[7]
  inhibition at 200 ppm: ≥ 80%
[9]
  inhibition at 200 ppm: ≥ 80%

## O=C(OCC#Cc1ccccc1)c1cc2c(cc1Cl)COB2O [Compound 232]
[3]
  pest or weed control at 200 ppm: ≥ 80%
[4]
  pest or weed control at 200 ppm: ≥ 80%
[5]
  inhibition at 200 ppm: ≥ 80%
[6]
  inhibition at 200 ppm: ≥ 80%
[10]
  inhibition at 200 ppm: ≥ 80%
[7]
  inhibition at 200 ppm: ≥ 80%
[8]
  inhibition at 200 ppm: ≥ 80%
[9]
  inhibition at 200 ppm: ≥ 80%
[11]
  inhibition at 200 ppm: ≥ 80%
[12]
  inhibition at 200 ppm: ≥ 80%
